Reference: PMC2228184 (British Journal of Cancer, 1997)
Like-named read-outs stand apart in the source and are kept apart here.

What was measured:
clinical = details: human, in vivo
Source text: Topoisomerases are essential nuclear enzymes that alter the topology of DNA during DNA metabolism by cleavage of DNA strands, strand passage and religation (Wang, 1985). Two major topoisomerases, types I and H, have been identified in all mammalian cells, and induce single- and double-strand breaks respectively. […] They have different sites of binding DNA and play a different role in the cell cycle. Received 15 November 1996 Revised 19 February 1997 Accepted 10April 1997 Correspondence to: VMM Herben, Slotervaart Hospital, Department of Pharmacy and Pharmacology, Louwesweg 6, 1066 EC Amsterdam, The Netherlands Topotecan (Hycamtin), a semisynthetic water-soluble derivative of camptothecin, was the first topoisomerase I-targeting drug to undergo clinical testing since the discontinuation of the clinical development of sodium camptothecin in the early 1970s. […] In view of topotecan's unique mechanism of action and important anti-tumour effects as single agent, recent studies have focused on combination therapies with other effective anti- cancer agents. The combination of topoisomerase I inhibitors with topoiso- merase II poisons is in theory an attractive strategy. As resistance to inhibition of one class of topoisomerase enzymes is accompa- nied with an elevated sensitivity to the other class of topoiso- merase inhibitors in vitro (Tan et al, 1989; Sugimoto et al, 1990), a combined administration regimen of inhibitors of both topoiso- merases could effectively kill tumour cells. […] The recommended dose for this schedule is 1.5 mg m-2 day-1 (Rowinsky et al, 1991; Verweij et al, 1993). […] Other eligibility criteria included a Zubrod-ECOG-WHO performance status < 2, anticipated life expectancy of 2 3 months and age 2 18 years. Previous anti-cancer chemotherapy had to be discontinued for at least 4 weeks before entry into the study or 6 weeks in cases of pretreatment with a nitrosourea or mitomycin C. All patients had acceptable bone marrow function white blood cell (WBC) ? […] The study protocol was approved by the Medical Ethics Committee of the hospital, and all patients gave written informed consent. Treatment plan and study design Topotecan (SmithKline Beecham Pharmaceuticals, King of Prussia, PA, USA) was supplied by the National Cancer Institute as a lyophilized light yellow powder in vials containing 5 mg of topotecan (as the free base), 60 mg of mannitol, 25 mg of tartaric acid and 2 M hydrochloric acid and/or 0.05 M sodium hydroxide for pH adjustment to 3.0. The content of each vial was reconsti- tuted with 2 ml of sterile water for injection, USP, yielding a 2.5 mg ml-1 solution of topotecan. The appropriate dosage of the drug was diluted in 50 or 100 ml of 0.9% sodium chloride and was administered intravenously over 30 min by a syringe pump. […] The regimen was intended to be repeated every 4 weeks. This could be changed during the study to either shorter or longer intervals depending on bone marrow recovery. Doses were escalated in an alternating way according to the scheme in Table 1. […] Treatment cycles were to be repeated at 3-week intervals. Patients were scheduled to receive at least two courses.

[1] = system: patients with advanced solid tumours; details: both, human, in vivo
Method: 0.3 h. […] 2.7 1 h-1 m-2 with a steady-state volume of distribution of 36.7 ? 6.2 I m-2. […] 1.0 h after infusion. […] 0.54 and 1.23 ? […] 1.2 and 2.3 ? 1.0 h after ingestion of 20 and 40 mg respectively. […] Other eligibility criteria included a Zubrod-ECOG-WHO performance status < 2, anticipated life expectancy of 2 3 months and age 2 18 years. Previous anti-cancer chemotherapy had to be discontinued for at least 4 weeks before entry into the study or 6 weeks in cases of pretreatment with a nitrosourea or mitomycin C. All patients had acceptable bone marrow function white blood cell (WBC) ? 4 x 10^9 1-1 and platelets 2 100 x 109 11; normal hepatic function, serum bilirubin < 1.5 mg dl-' (25 pmol 1-1) and other liver function tests < twice the normal upper limit or < five times when related to liver metastases, prothrombin or thrombotest within normal limits; normal renal function, serum creatinine < 1.4 mg dl-1 (120 gmol 1-1). The study protocol was approved by the Medical Ethics Committee of the hospital, and all patients gave written informed consent. Treatment plan and study design Topotecan (SmithKline Beecham Pharmaceuticals, King of Prussia, PA, USA) was supplied by the National Cancer Institute as a lyophilized light yellow powder in vials containing 5 mg of topotecan (as the free base), 60 mg of mannitol, 25 mg of tartaric acid and 2 M hydrochloric acid and/or 0.05 M sodium hydroxide for pH adjustment to 3.0. The content of each vial was reconsti- tuted with 2 ml of sterile water for injection, USP, yielding a 2.5 mg ml-1 solution of topotecan. The appropriate dosage of the drug was diluted in 50 or 100 ml of 0.9% sodium chloride and was administered intravenously over 30 min by a syringe pump.

patients = details: cited from earlier work
[2] = system: patients with advanced solid tumours; details: human, in vivo
Source text: (§1) Topoisomerases are essential nuclear enzymes that alter the topology of DNA during DNA metabolism by cleavage of DNA strands, strand passage and religation (Wang, 1985). Two major topoisomerases, types I and H, have been identified in all mammalian cells, and induce single- and double-strand breaks respectively. […] They have different sites of binding DNA and play a different role in the cell cycle. Received 15 November 1996 Revised 19 February 1997 Accepted 10April 1997 Correspondence to: VMM Herben, Slotervaart Hospital, Department of Pharmacy and Pharmacology, Louwesweg 6, 1066 EC Amsterdam, The Netherlands Topotecan (Hycamtin), a semisynthetic water-soluble derivative of camptothecin, was the first topoisomerase I-targeting drug to undergo clinical testing since the discontinuation of the clinical development of sodium camptothecin in the early 1970s. […] In view of topotecan's unique mechanism of action and important anti-tumour effects as single agent, recent studies have focused on combination therapies with other effective anti- cancer agents. The combination of topoisomerase I inhibitors with topoiso- merase II poisons is in theory an attractive strategy. As resistance to inhibition of one class of topoisomerase enzymes is accompa- nied with an elevated sensitivity to the other class of topoiso- merase inhibitors in vitro (Tan et al, 1989; Sugimoto et al, 1990), a combined administration regimen of inhibitors of both topoiso- merases could effectively kill tumour cells. […] The recommended dose for this schedule is 1.5 mg m-2 day-1 (Rowinsky et al, 1991; Verweij et al, 1993). […] Other eligibility criteria included a Zubrod-ECOG-WHO performance status < 2, anticipated life expectancy of 2 3 months and age 2 18 years. Previous anti-cancer chemotherapy had to be discontinued for at least 4 weeks before entry into the study or 6 weeks in cases of pretreatment with a nitrosourea or mitomycin C. All patients had acceptable bone marrow function white blood cell (WBC) ? […]

[3] = Plasma pharmacokinetics of etoposide after oral administration (HPLC); details: human
Source text: Topoisomerases are essential nuclear enzymes that alter the topology of DNA during DNA metabolism by cleavage of DNA strands, strand passage and religation (Wang, 1985). Two major topoisomerases, types I and H, have been identified in all mammalian cells, and induce single- and double-strand breaks respectively. […] They have different sites of binding DNA and play a different role in the cell cycle. Received 15 November 1996 Revised 19 February 1997 Accepted 10April 1997 Correspondence to: VMM Herben, Slotervaart Hospital, Department of Pharmacy and Pharmacology, Louwesweg 6, 1066 EC Amsterdam, The Netherlands Topotecan (Hycamtin), a semisynthetic water-soluble derivative of camptothecin, was the first topoisomerase I-targeting drug to undergo clinical testing since the discontinuation of the clinical development of sodium camptothecin in the early 1970s. […] In view of topotecan's unique mechanism of action and important anti-tumour effects as single agent, recent studies have focused on combination therapies with other effective anti- cancer agents. The combination of topoisomerase I inhibitors with topoiso- merase II poisons is in theory an attractive strategy. As resistance to inhibition of one class of topoisomerase enzymes is accompa- nied with an elevated sensitivity to the other class of topoiso- merase inhibitors in vitro (Tan et al, 1989; Sugimoto et al, 1990), a combined administration regimen of inhibitors of both topoiso- merases could effectively kill tumour cells. […] The recommended dose for this schedule is 1.5 mg m-2 day-1 (Rowinsky et al, 1991; Verweij et al, 1993). […] Other eligibility criteria included a Zubrod-ECOG-WHO performance status < 2, anticipated life expectancy of 2 3 months and age 2 18 years. Previous anti-cancer chemotherapy had to be discontinued for at least 4 weeks before entry into the study or 6 weeks in cases of pretreatment with a nitrosourea or mitomycin C. All patients had acceptable bone marrow function white blood cell (WBC) ? […] The study protocol was approved by the Medical Ethics Committee of the hospital, and all patients gave written informed consent. Treatment plan and study design Topotecan (SmithKline Beecham Pharmaceuticals, King of Prussia, PA, USA) was supplied by the National Cancer Institute as a lyophilized light yellow powder in vials containing 5 mg of topotecan (as the free base), 60 mg of mannitol, 25 mg of tartaric acid and 2 M hydrochloric acid and/or 0.05 M sodium hydroxide for pH adjustment to 3.0. The content of each vial was reconsti- tuted with 2 ml of sterile water for injection, USP, yielding a 2.5 mg ml-1 solution of topotecan. The appropriate dosage of the drug was diluted in 50 or 100 ml of 0.9% sodium chloride and was administered intravenously over 30 min by a syringe pump. […]

[4] = ref Clark et al, 1989; cited from earlier work
[5] = set-up: method as in Johnson and Wood, personal communication; details: ref Johnson and Wood, personal communication; cited from earlier work
[6] = Pharmacokinetics of N-desmethyltopotecan after 30-min infusion of topotecan; assay type: in vivo, human
Source text: as §1

## CC[C@@]1(O)C(=O)OCc2c1cc1n(c2=O)Cc2cc3c(CN(C)C)c(O)ccc3nc2-1 [topotecan]
clinical; both, iv
  half-life: 2.1 ± 0.3 h
clinical
  alpha half-life: 3.8 ? 3.2 min
clinical; 0.5 mg
  CL: 14.9 ? 1.8 l h-1 m-2
  Vss: 34.0 ? 2.6 l m-2
  t1/2: 1.9 ? 0.1 h
clinical; 1 mg
  CL: 13.4?2.6 l h-1 m-2
  Vss: 36.4?5.2 l m-2
  t1/2: 2.2?0.3 h
clinical; 1.25 mg
  CL: 15.6 ? 4.0 l h-1 m-2
  Vss: 33.7 ? 6.7 l m-2
clinical; 24 h
  percentage of the administered dose recovered in the urine: 41 ? 10%
  percentage of the administered dose recovered in the urine, range: 25-7 1
clinical; iv
  terminal (beta) half-life: 2.1 ? 0.3 h
[1]
  dose that could be given in combination, % of the single-agent dosage: 67-83%
  recommended dose for phase II clinical trials: 1.0 mg m-2
patients; 30-min daily times five infusion every 3 weeks, ref Rowinsky et al, 1991, Verweij et al, 1993
  recommended dose, single agent: 1.5 mg m-2 day-1
patients; preceding single-agent phase I trial, Figure 2, ref Van Warmerdam et al, 1995
  AUC50 (AUC associated with 50% decrease in ANC): 79.2 h/nmol/L
patients; previously treated patients, ref Saltz et al (1993)
  recommended dose, single agent: 1.25 mg m-2 daily
patients; previously untreated patients, ref Saltz et al (1993)
  recommended dose, single agent: 1.5 mg m-2 daily
patients; single agent 1.5 mg m-2 day-1, ref Rowinsky et al, 1991, Verweij et al, 1993
  courses resulting in grades III or IV leucocytopenia and neutropenia: approximately 75%
[2]; both
  dose associated with a 50% decrease in ANC (D50): 0.6 mg m-2 day-1

## COc1cc([C@@H]2c3cc4c(cc3[C@@H](O[C@@H]3O[C@@H]5CO[C@@H](C)O[C@H]5[C@H](O)[C@H]3O)[C@H]3COC(=O)[C@H]23)OCO4)cc(OC)c1O [etoposide]
[1]
  recommended dose for phase II clinical trials: 40 mg bid
[3]; 20 mg
  Cmax: 750 ± 540 nM
  Tmax: 2.4 ± 1.2 h
[3]; 40 mg
  Cmax: 1230 ± 570 nM
  Tmax: 2.3 ± 1 h
[4]
  peak plasma concentrations associated with significant toxicity: above 17 μmol l-1
[2]
  correlation of pharmacokinetics (AUC, Cmax) or total dose with haematological toxicity: did not yield any significant relationship

## CC[C@@]1(O)C(=O)OCc2c1cc1n(c2=O)Cc2cc3c(CNC)c(O)ccc3nc2-1 [N-desmethyltopotecan]
[5]
  anti-tumour activity compared with the parent compound: slightly less anti-tumour activity
[6]; 24 to 48 hours after the fifth daily infusion, four patients
  additional excretion in the urine as the metabolite: 0.4%
[6]; all dose levels
  metabolite-to-topotecan ratio of maximal plasma levels: 0.5%
[6]; all dose levels, up to 6 h post-infusion
  metabolite-to-topotecan AUC(t) ratio: 0.012
[2]
  relation of AUC(t) to myelosuppression: not related
